For this assay, the system named is HCV2aChLuc virus. Description: In vitro HCVcc entry assay: HCV2aChLuc virus infection of Huh7 cells, Renilla luciferase read-out. Type of assay: cell-based, HCV genotype 2a. As to conditions: Hepatitis C virus, Huh-7, read-out: Activity class (IC50), tested according to the method of Example 3.
The IC50 is the concentration at which inhibition is half-maximal. As for `COc1c(NC(=O)C(=O)c2ccc(OCCN3CCOCC3)c3ccccc23)cc(C(C)(C)C)cc1C(=O)N1CCNC(=O)C1` [Compound 26], the IC50 is 0.005 to 0.5 µM.

For the molecule `COc1c(NC(=O)C(=O)c2ccc(OCCN3CC(C)OC(C)C3)c3ccccc23)cc(C(C)(C)C)cc1NS(C)(=O)=O` (stereo not drawn) [Compound 57], the half-inhibitory concentration (IC50) is 0.005 to 0.5 µM. `CC(C)(C)c1cc(NC(=O)C(=O)c2ccc(OCCN3CCOCC3)c3ccccc23)[nH]n1` [Compound 44]: the half-inhibitory concentration (IC50) is over 0.5 µM. Consider `COCCNC(=O)c1cc(C(C)(C)C)cc(NC(=O)C(=O)c2ccc(OCCN3CCOCC3)c3ccccc23)c1OC` [Compound 9, 5-tert-butyl-2-methoxy-N-(2-methoxyethyl)-3-(2-(4-(2-morpholinoethoxy)naphthalen-1-yl)-2-oxoacetamido)benzamide], for which the concentration for half-maximal inhibition (IC50) is under 0.005 µM. In the case of `CCCS(=O)(=O)Nc1cc(C(C)(C)C)cc(NC(=O)C(=O)c2ccc(OC)c3ccccc23)c1OC` [Compound 78], the IC50 lay in the range of 0.005 to 0.5 µM. With `COc1c(C)cc(C(C)(C)C)cc1NC(=O)C(=O)c1ccc(OCCN2CCOCC2)c2ccccc12` [Compound 31], the IC50 was over 0.5 µM. The result for `Cn1nc(C(C)(C)C)cc1NC(=O)C(=O)c1ccc(OCCN2CCOCC2)c2ccccc12` [Compound 50] reads over 0.5 µM; that for `CCNC(=O)c1cc(C(C)(C)C)cc(NC(=O)C(=O)c2ccc(OCCN3CCOCC3)c3ccccc23)c1OC` [Compound 7, 5-tert-butyl-N-ethyl-2-methoxy-3-(2-(4-(2-morpholinoethoxy)naphthalen-1-yl)-2-oxoacetamido)benzamide], under 0.005 µM; that for `CNc1ccc(-c2ccc(C(=O)C(=O)Nc3cc(C(C)(C)C)cc(NS(C)(=O)=O)c3OC)c3ccccc23)cn1` [Compound 131], over 0.5 µM. The result for `CC(C)Oc1ccc(C(C)(C)C)cc1NC(=O)C(=O)c1ccc(OCCN2CCOCC2)c2ccccc12` [Compound 42] reads over 0.5 µM; that for `COc1c(NC(=O)C(=O)c2ccc(OCCN3CCOCC3)c3ccccc23)cccc1NS(C)(=O)=O` [Compound 110], over 0.5 µM. `CCNC(=O)c1cc(C(C)(C)C)cc(NC(=O)C(=O)c2ccc(OCCN3CCOCC3)c3ccccc23)c1O` [Compound 71]: the IC50 is 0.005 to 0.5 µM. With `COc1ccc(C(C)(C)C)cc1NC(=O)C(=O)c1ccc(OC)c2ccccc12` [Compound 14, N-(5-tert-butyl-2-methoxyphenyl)-2-(4-methoxynaphthalen-1-yl)-2-oxoacetamide], the IC50 is under 0.005 µM. The result for `CC(C)(C)c1ccc(NC(=O)C(=O)c2ccc(OCCN3CCOCC3)c3ccccc23)cc1` [Compound 32] reads over 0.5 µM; that for `COc1c(NC(=O)C(=O)c2ccc(OCCN3CCOCC3)c3ccccc23)cc(C(C)(C)C)cc1-n1ccnn1` [Compound 108], 0.005 to 0.5 µM; that for `COc1c(NC(=O)C(=O)c2ccc(OC)c3ccccc23)cc(C(C)(C)C)cc1C(N)=O` [Compound 77], over 0.5 µM.

In the case of `COc1c(NC(=O)C(=O)c2ccc(-c3ccc(N(C)C)nc3)c3ccccc23)cc(C(C)(C)C)cc1NS(C)(=O)=O` [Compound 125], the half-maximal inhibitory concentration (IC50) was over 0.5 µM. For the molecule `Cc1ccc(C)c(NC(=O)C(=O)c2ccc(OCCN3CCOCC3)c3ccccc23)c1` [Compound 63], the half-maximal inhibitory concentration (IC50) was over 0.5 µM.

With `COc1c(NC(=O)C(=O)c2ccc(OCCN3CCN(C)CC3)c3ccccc23)cc(C(C)(C)C)cc1NS(C)(=O)=O` [Compound 51], the IC50 is over 0.5 µM. As to `COc1c(NC(=O)C(=O)c2ccc(OCCN3CCOCC3)c3ccccc23)cc(C(C)(C)C)cc1C(=O)N1CCN(C(C)C)CC1` [Compound 99], the half-maximal inhibitory concentration (IC50) is 0.005 to 0.5 µM.

Consider `COc1ccc(C(C)(C)c2ccccc2)cc1NC(=O)C(=O)c1ccc(OCCN2CCOCC2)c2ccccc12` [Compound 16, N-(2-methoxy-5-(2-phenylpropan-2-yl)phenyl)-2-(4-(2-morpholinoethoxy)naphthalen-1-yl)-2-oxoacetamide], for which the IC50 was under 0.005 µM.

In the case of `COc1c(NC(=O)C(=O)c2ccc(OCCN3CCNCC3)c3ccccc23)cc(C(C)(C)C)cc1NS(C)(=O)=O` [Compound 58], the IC50 is over 0.5 µM. On to `COc1c(C#N)cc(C(C)(C)C)cc1NC(=O)C(=O)c1ccc(-c2ccc(NCCC(C)(C)C)nc2)c2ccccc12` [Compound 94], for which the concentration for half-maximal inhibition (IC50) was over 0.5 µM.

On to `COc1c(NC(=O)C(=O)c2ccc(OCCN3CCOCC3)c3ccccc23)cc(C(C)(C)C)cc1C(=O)NC1CCN(C)CC1` [Compound 103], for which the IC50 is over 0.5 µM. Take `Cc1ccc(-n2nc(C(C)(C)C)cc2NC(=O)C(=O)c2ccc(OCCN3CCCOCC3)c3ccccc23)cc1` [Compound 38]: the IC50 was over 0.5 µM.

On to `CC(C)(C)c1cccc(NC(=O)C(=O)c2ccc(OCCN3CCOCC3)c3ccccc23)c1` [Compound 27], for which the half-inhibitory concentration (IC50) is over 0.5 µM. With `CC(C)(C)c1cc(N)nc(NC(=O)C(=O)c2ccc(OCCN3CCOCC3)c3ccccc23)n1` [Compound 48], the IC50 is over 0.5 µM. As to `COc1c(NC(=O)C(=O)c2ccc(OCCN(CCO)CCO)c3ccccc23)cc(C(C)(C)C)cc1NS(C)(=O)=O` [Compound 3, 2-(4-(2-(bis(2-hydroxyethyl)amino)ethoxy)-naphthalen-1-yl)-N-(5-tert-butyl-2-methoxy-3-(methylsulfonamido)phenyl)-2-oxoacetamide], the IC50 was under 0.005 µM.

On to `CCOc1ccc(C(C)(C)C)cc1NC(=O)C(=O)c1ccc(OCCN2CCOCC2)c2ccccc12` [Compound 41], for which the IC50 is over 0.5 µM.

Take `COCCOCCOc1ccc(C(=O)C(=O)Nc2cc(C(C)(C)C)cc(NS(C)(=O)=O)c2OC)c2ccccc12` [Compound 86]: the IC50 is over 0.5 µM. Turning to `COc1c(NC(=O)C(=O)c2ccc(OCCN3CCOCC3)c3ccccc23)cc(C(C)(C)C)cc1C(=O)N1CCN(CC2CC2)CC1` [Compound 100], the concentration for half-maximal inhibition (IC50) is over 0.5 µM. In the case of `O=C(Nc1cccc2c1CCC2)C(=O)c1ccc(OCCN2CCOCC2)c2ccccc12` [Compound 65], the IC50 was in the range of 0.005 to 0.5 µM. Next, `CCCS(=O)(=O)Nc1cc(C(C)(C)C)cc(NC(=O)C(=O)c2ccc(N3CCC(CC(=O)OCC)CC3)c3ccccc23)c1OC` [Compound 87]: over 0.5 µM; `COc1c(Br)cc(C(C)(C)C)cc1NC(=O)C(=O)c1ccc(OCCN2CCOCC2)c2ccccc12` [Compound 89]: 0.005 to 0.5 µM; `COc1c(N)cc(C(C)(C)C)cc1NC(=O)C(=O)c1cccc2ccccc12` [Compound 132]: over 0.5 µM. Consider `COc1c(NC(=O)C(=O)c2ccc(OCCn3ccnc3)c3ccccc23)cc(C(C)(C)C)cc1NS(C)(=O)=O` [Compound 55], for which the IC50 lay in the range of 0.005 to 0.5 µM. On to `O=C(Nc1cc(C(F)(F)F)ccc1Br)C(=O)c1ccc(OCCN2CCOCC2)c2ccccc12` [Compound 83], for which the 50% inhibitory concentration (IC50) is over 0.5 µM. As for `CC(C)(C)CCNC(=O)C(=O)c1ccc(OCCN2CCOCC2)c2ccccc12` [Compound 66], the IC50 is over 0.5 µM. Regarding `COc1c(NC(=O)C(=O)c2ccc(OCCN3CCN(C(C)=O)CC3)c3ccccc23)cc(C(C)(C)C)cc1NS(C)(=O)=O` [Compound 54], the 50% inhibitory concentration (IC50) lay within 0.005 to 0.5 µM. `COc1c(Cl)cc(C(C)(C)C)cc1NC(=O)C(=O)c1ccc(OCCN2CCOCC2)c2ccccc12` [Compound 72]: the half-maximal inhibitory concentration (IC50) lay in the range of 0.005 to 0.5 µM. For `CNc1ccc(-c2ccc(C(=O)C(=O)Nc3cc(C(C)(C)C)cc(C(N)=O)c3OC)c3ccccc23)cn1` [Compound 137], the IC50 was under 0.005 µM. On to `CCOc1ccc(C(=O)C(=O)Nc2cc(C(C)(C)C)ccc2OC)c2ccccc12` [Compound 19, N-(5-tert-butyl-2-methoxyphenyl)-2-(4-ethoxynaphthalen-1-yl)-2-oxoacetamide], for which the IC50 was under 0.005 µM. For the molecule `CCCS(=O)(=O)Nc1cc(C(C)(C)C)cc(NC(=O)C(=O)c2ccc(OCC(=O)c3ccc(OC)cc3)c3ccccc23)c1OC` [Compound 84], the half-inhibitory concentration (IC50) was over 0.5 µM. Turning to `COc1ccc(C(C)(C)C)cc1NC(=O)C(=O)c1ccc(OC(C)C)c2ccccc12` [Compound 20, N-(5-tert-butyl-2-methoxyphenyl)-2-oxo-2-[4-(propan-2-yloxy)naphthalen-1-yl]acetamide], the half-inhibitory concentration (IC50) was under 0.005 µM. With `CNC(=O)c1sc(C(C)(C)C)cc1NC(=O)C(=O)c1ccc(OCCN2CCOCC2)c2ccccc12` [Compound 12, 5-tert-butyl-N-methyl-3-(2-(4-(2-morpholinoethoxy)naphthalen-1-yl)-2-oxoacetamido)thiophene-2-carboxamide], the IC50 is under 0.005 µM.

For `COc1c(C#N)cc(C(C)(C)C)cc1NC(=O)C(=O)c1ccc(OCCN2CCOCC2)c2ccccc12` [Compound 4, N-(5-tert-butyl-3-cyano-2-methoxyphenyl)-2-(4-(2-morpholinoethoxy)naphthalen-1-yl)-2-oxoacetamide], the 50% inhibitory concentration (IC50) is under 0.005 µM. Take `O=C(Nc1cc(Br)cnc1Cl)C(=O)c1ccc(OCCN2CCOCC2)c2ccccc12` [Compound 119]: the half-inhibitory concentration (IC50) lay within 0.005 to 0.5 µM. The result for `COc1ccc(C2CCCCC2)cc1NC(=O)C(=O)c1ccc(OCCN2CCOCC2)c2ccccc12` [Compound 15, N-(5-cyclohexyl-2-methoxyphenyl)-2-(4-(2-morpholinoethoxy)naphthalen-1-yl)-2-oxoacetamide] reads under 0.005 µM.

Take `COc1c(NC(=O)C(=O)c2ccc(OCCN3CCOCC3)c3ccccc23)cc(C(C)(C)C)cc1S(=O)(=O)N(C)C` [Compound 2, N-(5-tert-butyl-3-(N,N-dimethylsulfamoyl)-2-methoxyphenyl)-2-(4-(2-morpholinoethoxy)naphthalen-1-yl)-2-oxoacetamide]: the IC50 was under 0.005 µM. For `COc1c(NC(=O)C(=O)c2ccc(OCCN3CCOCC3)c3ccc(Cl)cc23)cc(C(C)(C)C)cc1NS(C)(=O)=O` [Compound 74], the IC50 was 0.005 to 0.5 µM. In the case of `COc1c(NC(=O)C(=O)c2ccc(OCCN3CCOCC3)c3ccccc23)cc(C(C)(C)C)cc1NC(=O)N1CCCC1` [Compound 22], the IC50 lay in the range of 0.005 to 0.5 µM.

`COc1c(NC(=O)C(=O)c2ccc(OCCN3CCOCC3)c3ccccc23)cc(C(C)(C)C)cc1C(=O)N1CC2CCC(C1)N2` [Compound 104]: the 50% inhibitory concentration (IC50) is over 0.5 µM. As to `CCNC(=O)c1cc(C(C)(C)C)cc(NC(=O)C(=O)c2ccc(-c3ccc(NC)nc3)c3ccccc23)c1OC` [Compound 138], the IC50 was under 0.005 µM. Turning to `COc1c(NC(=O)C(=O)c2ccc(OCC(N)=O)c3ccccc23)cc(C(C)(C)C)cc1NS(C)(=O)=O` [Compound 85], the IC50 was over 0.5 µM.

These data come from patent US20110117055A1, “Methods of Treating Hepatitis C Virus with Oxoacetamide Compounds” (priority 2009, published 2011).
